These results are taken from ChEMBL document CHEMBL1151457, “Colistin heteroresistance in acinetobacter and its association with previous colistin therapy” (Antimicrob Agents Chemother, 2008).

The source made the active and inactive calls. The rule behind the calls is not given here.

In general, MIC refers to the least concentration at which growth counts as inhibited.

Holding throughout (assay type): functional, organism-based
Assay [1] has as its system Acinetobacter. The assay is described as follows: Antibacterial activity against heteroresistant Acinetobacter baumannii-calcoaceticus complex isolated from total cumulative patients preexposed to 325 to 900 mg of drug after 20 to 24 hrs by broth microdilution method.
In assay [2] the test system is Acinetobacter. The experiment in a line: Antimicrobial activity against susceptible-Acinetobacter baumannii-calcoaceticus complex isolated from patients after 20 to 24 hrs by broth microdilution method.
In assay [3] the test system is Acinetobacter. The experiment in a line: Antibacterial activity against heteroresistant Acinetobacter baumannii-calcoaceticus complex isolated from total cumulative patients preexposed to 325 to 900 mg of drug at 4 ug/ml after 20 to 24 hrs by broth microdilution method.
Assay [4] concerns Acinetobacter. The experiment in a line: Antibacterial activity against heteroresistant Acinetobacter baumannii-calcoaceticus complex isolated from total cumulative patients preexposed to 325 to 900 mg of drug measured after two passages with 8 ug/ml of drug on sheep blood plates by broth microdilution method.
Assay [5] deals with Acinetobacter. The assay is described as follows: Antibacterial activity against heteroresistant Acinetobacter baumannii-calcoaceticus complex isolated from total cumulative patients preexposed to 325 to 900 mg of drug at 2 ug/ml after 20 to 24 hrs by broth microdilution method.
Assay [6] relates to Acinetobacter. The experiment in a line: Antibacterial activity against heteroresistant Acinetobacter baumannii-calcoaceticus complex isolated from total cumulative patients preexposed to 325 to 900 mg of drug assessed as colony forming unit at 8 ug/ml after 20 to 24 hrs by broth microdilution method.
Assay [7] relates to Acinetobacter. The assay is described as follows: Antimicrobial activity against heteroresistant-Acinetobacter baumannii-calcoaceticus complex isolated from patients after 20 to 24 hrs by broth microdilution method.
Assay [8] relates to Acinetobacter. The experiment in a line: Antibacterial activity against Acinetobacter baumannii-calcoaceticus complex assessed as colony forming unit at 8 ug/ml after 20 to 24 hrs by broth microdilution method.

Take `CC1(C)[C@H](C(=O)O)N2C(=O)C[C@H]2S1(=O)=O`: the outcome in the assay with Acinetobacter [1] was Active.

COLISTIN: the values for the MIC in the assay on Acinetobacter [2], with Acinetobacter [4] and in the assay on Acinetobacter [7] were below 1 µg/mL, above 16 µg/mL and above 8 µg/mL, respectively. In addition, the outcome in the assay with Acinetobacter [3] and in the assay with Acinetobacter [5] was inactive. In addition, the Activity with Acinetobacter [6] is 0.000211%; with Acinetobacter [8], 5.3e-05%.

For the compound GENTAMICIN, the result in the assay with Acinetobacter [1] was Active.
